Experimental data: patent publication US10378058B2, “Diagnostic and therapeutic methods and compositions involving PTEN and breast cancer” (Board of Regents of The University of Texas System, priority 2003, dated 2019)
“Also recorded” adds a separate entry of the source.

Columns and labels:
[1] = biological target: T1, Src (Homo sapiens, UniProt P12931); assay: Src-Y416 phosphorylation in 435.eB cells; type: cell-based; conditions: vs solvent 10% DMSO
T1 construct: endogenous in cells; host or cells: 435.eB cells
Method: (§1) Preparation of Cell Lysates, Immunoprecipitation, and Western Blot Analysis. Cells at 70%-80% confluence were treated with each reagent indicated in the individual experiments. For PTEN phosphotyrosine immunoblots, ErbB2 IP, and Src IP, cells were treated with 30 mM pervanadate for 10 min as described (Lu et al., 2003). Unless noted, cells were washed with PBS and lysed in IP buffer with protease inhibitor cocktail (Sigma Chemical Co., St. Louis, Mo.). Immunoprecipitation and Western blot analysis were performed (Yu et al., 1998).

[2] = test system: PTEN; assay: PTEN tyrosine phosphorylation in 435.eB cells; type: cell-based; conditions: vs solvent 10% DMSO
Method: as §1

[3] = test system: BT474 cells; assay: Cell viability assay of BT474 cells; type: cell-based, human; conditions: paclitaxel alone without trastuzumab
Method: (§2) Cell viability assay. Cells were seeded at 1-5×10^3 cells/well in 96-well plates after oligonucleotide transfection. Viable cells were determined by CellTiter 96 AQueous Non-Radioactive Cell Proliferation Assay (Promega, Madison, Wis.).

[4] = test system: PTEN; assay: PTEN expression after antisense transfection in vitro; type: cell-based, human; conditions: SKBr3 cells, 25 nM, vs mock or mismatched (MIS) oligonucleotides
Method: Antisense Delivery in vitro. Antisense oligonucleotides against PTEN (ISIS116847: 5′-[…]-3′) (SEQ ID NO:3) and control oligonucleotides (ISIS 116848: 5′-[…]-3′ (SEQ ID NO:4), with six base mismatches to ISIS 116847) have been described (Butler et al., 2002). Cells were plated in 100-mm dishes at 30% confluence and transfected with oligonucleotides (12.5 nM for BT474 and 25 nM for SKBr3 cells) twice using Oligofectamine (Life Technologies, Rockville, Md.) 24 and 72 h post-plating. Ninety-six hours post-plating, cells were re-plated for individual assays described in this report. PTEN expression was determined 120 h post-plating (FIG. 2A).
as §1

[5] = test system: SKBr3 cells; assay: Cell proliferation of SKBr3 cells (MTS assay); type: cell-based, human; conditions: PTEN AS alone without trastuzumab, vs MIS
Method: as §2

[6] = test system: PTEN; assay: PTEN expression in BT474 xenografts injected with oligonucleotides; type: in vivo, mice; conditions: intratumor injection 15 μg/injection twice a week for 1 week, ErbB2 expression remained the same
Method: Animal experiment. Female athymic nude mice (Harlan Sprague Dawley, Indianapolis, Ind.) were implanted with 0.72-mg 60-day-release 17β-estradiol pellets (Innovative Research, Sarasota, Fla.) and irradiated at 3.5 Gy prior to inoculation. BT474 cells (8×10^6) in 200 μl of PBS and Matrigel (BD Biosciences, Bedford, Mass.) mixture (1:1 ratio) were injected subcutaneously into a mouse mammary fat pad (mfp). When the mfp tumor volume reached >150 mm^3, the tumor was treated with PTEN antisense or control mismatched oligonucleotides (30 μg/week) in saline. […] Tumor diameters were serially measured with calipers and tumor volumes calculated: volume=width^2×length/2. Each treatment group contained 8-12 mice. Unpaired Student's t-test was used to assess statistical significance.

T1 sequence (P12931 whole entry): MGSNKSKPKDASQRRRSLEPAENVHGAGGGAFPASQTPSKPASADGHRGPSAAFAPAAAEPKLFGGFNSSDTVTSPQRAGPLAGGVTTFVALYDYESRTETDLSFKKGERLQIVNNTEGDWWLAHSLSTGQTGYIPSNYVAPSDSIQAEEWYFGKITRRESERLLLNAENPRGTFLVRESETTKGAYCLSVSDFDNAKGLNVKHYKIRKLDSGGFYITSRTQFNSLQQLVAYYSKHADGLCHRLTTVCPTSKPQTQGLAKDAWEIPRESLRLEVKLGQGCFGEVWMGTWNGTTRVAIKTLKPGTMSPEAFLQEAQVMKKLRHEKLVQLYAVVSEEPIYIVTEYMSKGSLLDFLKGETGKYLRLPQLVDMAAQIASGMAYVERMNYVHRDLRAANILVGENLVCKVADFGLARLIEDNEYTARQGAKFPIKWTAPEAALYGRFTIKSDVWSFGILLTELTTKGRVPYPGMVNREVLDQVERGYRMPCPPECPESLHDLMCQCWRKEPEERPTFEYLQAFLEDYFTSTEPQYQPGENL

Compound: CC(C)(C)n1nc(-c2ccc(Cl)cc2)c2c(N)ncnc21 [PP2]
- Src phosphorylation on Y416 [1]: effectively inhibited Src phosphorylation on Y416
- tyrosine phosphorylation of PTEN [2]: dramatically reduced tyrosine phosphorylation of PTEN

Compound: CC(=O)O[C@H]1C(=O)[C@@]2(C)[C@H]([C@H](OC(=O)c3ccccc3)[C@]3(O)C[C@H](OC(=O)[C@H](O)[C@@H](NC(=O)c4ccccc4)c4ccccc4)C(C)=C1C3(C)C)[C@]1(OC(C)=O)CO[C@@H]1C[C@@H]2O [paclitaxel]
- cell viability, PTEN AS-transfected vs MIS control-transfected cells [3]: no statistically significant difference in cell viability

Compound: PTEN AS: Antisense oligonucleotides against PTEN, 5′-CTGCTAGCCTCTGGATTTGA-3′ (SEQ ID NO:3) (listed as DNA, chemistry not given here)
- endogenous PTEN expression [4]: inhibited endogenous PTEN expression; also recorded: reduced
- cell proliferation [5]: no significant effect on cell proliferation
- PTEN expression in tumor xenografts [6]: effectively inhibited; also recorded: reduced
